According to paper PMC11378298 (ACS Chemical Neuroscience, 2024):
Several values for one entry are separate records, joined by “and”; a condition that tells them apart may be missing. Identical values can stand only once.

Assays:
[1] = human liver microsomes; for % of the compound remaining after 2 h of incubation: 2 h (120 min), 37 °C
Protocol: The primary site of drug metabolism in humans is the liver. Therefore, we used human liver microsomes (HLM) to determine the metabolic stability of selected compounds (Table 3). The compounds were incubated with HLMs for 2 h, and the resulting mixtures were analyzed with UPLC-MS (for details including the UPLC-MS spectra, see Table S10 and Figures S17–S22 in the SI).
All protocols used for the evaluation of drug-like properties (ADME-To parameters) were described in our previous works.[58],[89] Precoated PAMPA Plate System Gentest was obtained from Corning, (Tewksbury, MA, USA). The metabolic stability assay was performed on human liver microsomes (HLMs, Sigma-Aldrich, St. Louis, MO, USA). The assays with microsomes were supported by MetaSite 6.0.1 software (Molecular Discovery Ltd. Hertfordshire, UK). To predict potential drug–drug interactions (DDIs) the influence on CYP3A4, CYP2D6, and CYP2C9 were carried with use of respective P450-Glo kit (Promega, Madison, WI, USA). The luminescence signal and absorbance were measured by using a microplate reader EnSpire PerkinElmer (Waltham, MA, USA). The LC/MS/MS analyses used in PAMPA and the assays with use of HLMs were obtained on Waters ACQUITY TQD system (Waters, Milford, CT, USA). […] Statistical significances and IC50 values were calculated by Graph Pad Prism 9 software.
Table S9. Differences in binding energies given for methods in gas and water environment.
Method gas [kcal/mol] water [kcal/mol]
Metabolic stability of compounds 11 and 36 in human liver microsomes (HLMs)
Table S10. The molecular masses and metabolic pathways of compounds 11 and 36 determined using human liver microsomes.
Substrate mass % mass of the Metabolic pathway*
(m/z) remaining metabolite
*most probable metabolic pathways were estimated by MS analyses supported by in silico prediction using MetaSite 6.0.1 and ADMET Predictor tools
Figure S17. The MetaSite 6.0.1. software prediction of the most probabl e sites of compounds’ 11 and 36 metabolism. The darker the red color - the higher the probability of being involved […]

[2] = test system: HT-22 cells; experiment: Okadaic acid-induced hyperphosphorylation model, cell viability; type: cell-based, mouse; conditions: for increase in cells' viability after okadaic acid: okadaic acid 400 nM 3 h, viability after 24 h
Protocol: Thus, it is used in a cell model of hyperphosphorylated tau-induced neurodegeneration.[53],[54] […] The test was performed on the HT-22 cell line treated with okadaic acid at the concentration of 400 nM and the compounds at the concentration of 0.1, 1, and 10 μM. Cell viability was measured by the PrestoBlue cell viability reagent.
(§1) Cell viability was determined by Presto Blue assay after 24 h. (B) Effect of compounds 11, 34, and 36 (0.1, 1, 10 μM) on NO-release (%) in LPS-treated (100 ng/mL) BV-2 cell line. NO-release was measured using a fluorometric assay with 2,3-diaminonaphthalene (DAN). (C, D) Effects of compounds 11 and 36 (0.1, 1, 10 μM) on IL-6 and TNF-α release in LPS-treated (100 ng/mL) BV-2 cell line. The IL-6 and TNF-α levels were measured using LANCE Ultra TR-FRET Detection Kit (PerkinElmer). Statistical analysis was performed using GraphPad Prism 9.0.0. All values are expressed as mean with SD. Differences among groups were evaluated by one-way ANOVA followed by posthoc analysis (Dunnett’s multiple comparison tests) vs. control group (LPS on BV-2 cells and okadaic acid on HT-22 cells) and were considered statistically significant if p < 0.05 (*p < 0.05, **p < 0.01, ***p < 0.001, and ****p < 0.0001).
HT-22 cells were treated with okadaic acid (Merck): 400 nM for 3 h. After this time, the 10, 1, and 0.1 μM of tested compounds or DMSO were added and incubated in the aseptic condition (37 °C, 5% CO2). Cell viability was determined by Presto Blue assay after 24 h.

[3] = test system: BV-2 cell line; experiment: IL-6 release in LPS-treated BV-2 cells (LANCE Ultra TR-FRET); type: cell-based, mouse; conditions: compound 10 μM; LPS 100 ng/mL
Protocol: as §1, with “0.0001). […]” for “0.0001).”
The IL-6 and TNF-α levels in the culture supernatants were measured using LANCE Ultra TR-FRET Detection Kit (PerkinElmer), according to manufacturer protocol. […] After 1 h of incubation of IL-6 and 3h for incubation of TNF-α in the dark, at 22 °C, the plates were read with an EnVision plate reader (PerkinElmer) with the excitation wavelength at 320 nm, the donor emission at 615 nm, and the acceptor emission at 660 nm. […]

Structure (SMILES)	% of the compound metabolized ([1]; 2 h) [%]	% of the compound remaining after 2 h of incubation [1]	increase in cells' viability after okadaic acid ([2]; compound 10 μM)	cell viability after okadaic acid treatment ([2]; concentration not stated)	IL-6 release [3]	increase in cells' viability after okadaic acid ([2]; compound 1 μM)
O=C(Nc1cc(-c2ccc(-c3ncon3)s2)ccn1)C1CC1 [Compound 36, N-(4-(5-(1,2,4-Oxadiazol-3-yl)thiophen-2-yl)pyridin-2-yl)cyclopropanecarboxamide]	11	88.61% and 88.6%	statistically significant effect	restored cell viability	significantly reducing the release	–
NC(=O)N1CC=C(c2ccnc(NC(=O)C3CC3)c2)C1 [Compound 11, 3-(2-(Cyclopropanecarboxamido)pyridin-4-yl)-2,5-dihydro-1H-pyrrole-1-carboxamide]	–	100%	statistically significant effect	–	significantly reducing the release	statistically significant effect
